What was measured:
[1] = cited from earlier work
[2] = rats, pigs, sheep, dogs or humans; cited from earlier work
[3] = tested on: rat excitotoxic SCI pain model; experiment: Spontaneous pain-related excessive grooming behavior after excitotoxic SCI (intraspinal QUIS); type: in vivo
Text: Male Sprague-Dawley (SD) adult rats at 3 months, weighing 220-250 g, were used (Charles River, Indianapolis, Ind.). Rats were kept under standard housing conditions (12:12 light and dark cycle) with food and water ad libitum for at least 1 week following arrival in an enclosed, pathogen-free animal facility. All experimental procedures were approved and carried out in accordance with the Guidelines of the US National Institutes of Health and Institutional Animal Care and Use Committee (IACUC) of the University of Kentucky.
Excitotoxic SCI was produced by intraspinal injection of the glutamatergic AMPA/metabotropic receptor agonist quisqualic acid (QUIS) as previously described. Briefly, rats were anesthetized with a mixture of ketamine and xylazine (intraperitoneally, IP). Animals were placed in a stereotaxic unit and the spinal column immobilized with a vertebral clamp. One injection window for intraspinal injection was made by laminectomy between spinal segments T12-L1. Injections of 125 mM QUIS was made unilaterally at three levels of the cord by convection enhanced delivery. Injections, spaced 0.3 mm apart, were made at a depth of 1000 μm below the surface in segments T12-L1 between the dorsal root entry zone and the dorsal vein. These coordinates place injections in the center of the gray matter between spinal laminae IV-VI. The total volume of QUIS injected was 1.2 μl (0.4 μl each site, delivered over 4 minutes). Following injections, muscles were sutured over the laminectomy site, and the skin closed with wound clips.
(§1) Twenty-four male SD rats were randomly assigned to three groups: (A) FluBZ treatment plus intraspinal injection of QUIS (n=10); (B) vehicle treatment plus intraspinal injection of QUIS (n=10); and (C) Sham operation (intraspinal injection of saline, n=4). Assessment of excessive grooming behavior was used to evaluate the effects of FluBZ or vehicle on the development of the spontaneous pain behavior following excitotoxic SCI. The survival time of animals consisted of a period of 4 weeks or until tissue damage progressed beyond the superficial layers of skin, at which time (<4 weeks) animals were euthanized. […]
Assessment of the spontaneous pain-related excessive grooming behavior was performed as described in previous studies. […] Quantitative analysis of spontaneous excessive grooming pain behavior consisted of the incidence, onset time, mean area of skin damage, and severity of overgrooming pain behaviors for all animals as previously described.
Data related to the onset time, area of grooming-induced skin damage, and immunofluorescent number of object and mean intensity are expressed as mean ±standard error of mean (SEM) and analyzed by using a commercially available computer program (StatView; SAS Institute, Inc, Cary, N.C.). […]

[4] = tested on: acetylated α-tubulin; experiment: Immunofluorescence of acetylated α-tubulin in spinal dorsal horn after excitotoxic SCI; type: in vivo, rat; conditions: IP for 7 days from 3 h post-QUIS; lesion site, 28 days after injury; vs vehicle, p<0.001
Text: as §1, with “euthanized. FluBZ (10 mg/kg/day) or vehicle was intraperitoneally injected once daily for a period of 7 days post-injection of QUIS. The FluBZ or vehicle treatment began at 3 h post-QUIS injection. FluBZ (Sigma) was dissolved in 0.9% saline plus 0.01% Tween 80 (Vehicle).” for “euthanized.”
(§2) The stereological analysis of image data within dorsal horn of spinal cord in sham or QUIS-injured animals with treatment of FluBZ or vehicle will be performed using NIS-Elements AR program. Serial double-labeled immunofluorescent signal images of spinal cord sections at lesion epicenter and 2 mm rostral and caudal to the lesion site were analyzed using methods of Binary Layers and Automated Measurement Results. […]

[5] = tested on: α-tubulin N-acetyltransferase ATAT1/MEC-17; experiment: Immunofluorescence of α-tubulin acetyltransferase MEC-17 in spinal dorsal horn after excitotoxic SCI; type: in vivo, rat; conditions: IP for 7 days from 3 h post-QUIS; lesion site, 28 days after injury; vs vehicle, p<0.01
Text: as §1, with “euthanized. FluBZ (10 mg/kg/day) or vehicle was intraperitoneally injected once daily for a period of 7 days post-injection of QUIS. The FluBZ or vehicle treatment began at 3 h post-QUIS injection. FluBZ (Sigma) was dissolved in 0.9% saline plus 0.01% Tween 80 (Vehicle).” for “euthanized.”
as §2

[6] = tested on: endosomal EEA1-NR1; experiment: Immunofluorescence of endosomal EEA1-NMDAR1 (NR1) dual signal in spinal dorsal horn after excitotoxic SCI; type: in vivo, rat; conditions: post-treatment, 28 days post-excitotoxic injury; vs vehicle, p<0.001
Text: as §1, with “euthanized. FluBZ (10 mg/kg/day) or vehicle was intraperitoneally injected once daily for a period of 7 days post-injection of QUIS. The FluBZ or vehicle treatment began at 3 h post-QUIS injection. FluBZ (Sigma) was dissolved in 0.9% saline plus 0.01% Tween 80 (Vehicle).” for “euthanized.”
as §2

[7] = tested on: endosomal EEA1-pERK1/2; experiment: Immunofluorescence of endosomal EEA1-pERK1/2 dual signal in spinal dorsal horn after excitotoxic SCI; type: in vivo, rat; conditions: IP treatment, 28 days post-injury; vs vehicle, p<0.001
Text: as §1, with “euthanized. FluBZ (10 mg/kg/day) or vehicle was intraperitoneally injected once daily for a period of 7 days post-injection of QUIS. The FluBZ or vehicle treatment began at 3 h post-QUIS injection. FluBZ (Sigma) was dissolved in 0.9% saline plus 0.01% Tween 80 (Vehicle).” for “euthanized.”
as §2

[8] = tested on: mitochondrial cyclin B1; experiment: Immunofluorescence of mitochondrial cyclin B1 (cyclin B1/VDAC1 dual signal) in spinal dorsal horn after excitotoxic SCI; type: in vivo, rat; conditions: 10 mg/kg/day for 7 days post-injury; 28 days following injury; vs vehicle, p<0.001
Text: as §1, with “euthanized. FluBZ (10 mg/kg/day) or vehicle was intraperitoneally injected once daily for a period of 7 days post-injection of QUIS. The FluBZ or vehicle treatment began at 3 h post-QUIS injection. FluBZ (Sigma) was dissolved in 0.9% saline plus 0.01% Tween 80 (Vehicle).” for “euthanized.”
as §2

SMILES | solubility in aqueous systems [1] | bioavailability after oral treatment [2] | incidence of pain behavior ([3]; 10 mg/kg/day IP for 7 days, starting 3 h post-injury, vehicle-treated control 75%) | onset of excessive grooming pain behaviors ([3]; 10 mg/kg/day IP once daily for 7 days, starting 3 h post-QUIS, vehicle average onset 11 days, n=10) | size of the grooming area (skin damage) ([3]; 10 mg/kg/day for one week post-excitotoxic injury, vs vehicle, p<0.001) | severity of grooming class ([3]; 10 mg/kg/day for one week post-excitotoxic injury, vs vehicle, p<0.01) | α-tubulin acetylation in the spinal dorsal horn [4] | expression of acetyltransferase MEC-17 in the spinal dorsal horn [5] | endosomal EEA1-NR1 fluorescent signals in the dorsal horn [6] | endosomal EEA1-pERK1/2 fluorescent binary number object, binary area fraction, binary area, and mean intensity in the dorsal horn [7] | mitochondrial cyclin b1 activity in the dorsal horn [8]
COC(=O)Nc1nc2ccc(Sc3ccccc3)cc2[nH]1 [FBZ, fenbendazole] | poorly soluble | very low |  |  |  |  |  |  |  |  | 
COC(=O)Nc1nc2cc(C(=O)c3ccc(F)cc3)ccc2[nH]1 [FluBZ, Flubendazole] | poorly soluble | very low | 40% | 19 days after excitotoxic injury | significant reduction | significant reduction | significantly decreased | significantly decreased | significantly suppressed | significantly inhibited | significantly reduced
